Where “and” joins values, the source holds several entries; their conditions need not be identical. Identical values can stand only once.
Columns and labels:
[1] = Plasma protein binding, equilibrium dialysis; type: in vitro ADME; conditions: rat plasma, read-out: % bound (converted)
From the text: In drug discovery, the information on drug-plasma protein binding is valuable in evaluating and understanding, the absorption, distribution, metabolism and excretion (ADME)-related properties and the pharmacokinetic profile of drug candidates.

[2] = system: REC-1; assay: Combination with BO-1055, MCL (Tables 28, 29); type: cell-based, human; conditions: read-out: IC50 single drug
[3] = system: AML-2 CD34+ cells in NSG mice; assay: Primary MLL-AF9+ pediatric AML (AML-2) xenograft; type: in vivo, mouse; conditions: 30 mg/kg Q10D2x from day 7
[4] = system: Human Cancer Cell lines, Primary Patient Tumor Samples and normal tissues; assay: Sensitivity classes over panel of cancer lines and normal tissues; type: cell-based; conditions: tumor cell lines of Table 12
[5] = molecular target: P-glycoprotein (P-gp) (Homo sapiens, UniProt P08183); assay: P-gp mediated efflux in Caco-2 monolayers
[6] = system: OP9 calvarial stroma; assay: Cytotoxicity normal tissue 72 hr; type: cell-based; conditions: OP9 (mouse)
[7] = system: Ly19; assay: cells; conditions: Homo sapiens, read-out: cytotoxicity IC50
[8] = system: H526 xenografts; assay: SCLC H526 xenograft in NSG mice; type: in vivo, mouse; conditions: 30 mg/kg i.v. every second day; d30
From the text: Xenografts of GFP/Luciferase-labeled H526 were established in groups of ten NSG male mice aged 12 wks by subcutaneous injection of 50,000 tumor cells.

[9] = system: LY7 (OCH-Ly7); assay: Cytotoxicity DLBCL; conditions: read-out: cytotoxicity IC50; LY7, DLBCL GCB
[10] = system: spontaneous murine B-cell lymphoma; conditions: mouse
[11] = system: Mino; assay: Combination with BO-1055, MCL (Tables 28, 29); type: cell-based, human; conditions: read-out: IC50 single drug
[12] = system: AML cell lines; assay: Cytotoxicity, panel of AML cell lines; type: cell-based, human
From the text: Human cord blood CD34+ cells transduced with MLL-AF9 gene: MA-10, MA-18. Human bone marrow CD34+ cells transduced with MLL-AF9 gene: MA-23. Human cord blood CD34+ cells transduced with MLL-AF9 and N-ras genes: MA-9.3, MA-9.6. • b) Growth factor independent leukemic cell lines. Human MA-10 cells transduced with Flt3 ITD (W51) were adapted to in vitro proliferation without growth factors (Moore Laboratory).

[13] = system: NECB-1; assay: Cytotoxicity mantle cell lymphoma; conditions: read-out: cytotoxicity IC50; NECB-1, mantle cell lymphoma
Procedure: After 72 hours, the cultures were pulsed with Alamar Blue overnight, and the fluorescent intensity of resulted cultures was measured by a Synergy H1 plate-reader (BioTek Inc).

[14] = system: nude mice bearing prostate 22Rv/HL2 tumor xenografts; assay: Pathological examination of organs and body weight, 22Rv/HL2 xenograft mice
[15] = system: H358; type: cell-based, human
[16] = system: NOSE ovarian epithelium; type: cell-based, human
[17] = system: A549; type: cell-based, human
[18] = system: H60; assay: Cytotoxicity SCLC 72 hr alamar blue; type: cell-based, human
[19] = system: H1395; type: cell-based, human
[20] = system: SK-LU-1; type: cell-based, human
[21] = system: CL100T1; type: cell-based, human
[22] = system: H211; assay: Cytotoxicity SCLC 72 hr alamar blue; type: cell-based, human
[23] = system: HCC364; type: cell-based, human
[24] = system: BMMSC BM mesenchyme; assay: Cytotoxicity normal tissue 72 hr; type: cell-based, human
[25] = system: H69; assay: Cytotoxicity SCLC 72 hr alamar blue; type: cell-based, human
[26] = system: H1666; type: cell-based, human
[27] = system: H526; assay: Cytotoxicity SCLC 72 hr alamar blue; type: cell-based, human
[28] = system: H841; assay: Cytotoxicity SCLC 72 hr alamar blue; type: cell-based, human
[29] = system: FTE-hTERT Fallopian epithelium; assay: Cytotoxicity normal tissue 72 hr; type: cell-based, human
[30] = system: H719; assay: Cytotoxicity SCLC 72 hr alamar blue; type: cell-based, human
[31] = system: SK-MES-1; type: cell-based, human
[32] = system: H226; type: cell-based, human
[33] = system: CL97; type: cell-based, human
[34] = system: H524; assay: Cytotoxicity SCLC 72 hr alamar blue; type: cell-based, human
[35] = system: PC9/gefb4; type: cell-based, human

Chain of P-glycoprotein (P-gp) (P08183 whole entry): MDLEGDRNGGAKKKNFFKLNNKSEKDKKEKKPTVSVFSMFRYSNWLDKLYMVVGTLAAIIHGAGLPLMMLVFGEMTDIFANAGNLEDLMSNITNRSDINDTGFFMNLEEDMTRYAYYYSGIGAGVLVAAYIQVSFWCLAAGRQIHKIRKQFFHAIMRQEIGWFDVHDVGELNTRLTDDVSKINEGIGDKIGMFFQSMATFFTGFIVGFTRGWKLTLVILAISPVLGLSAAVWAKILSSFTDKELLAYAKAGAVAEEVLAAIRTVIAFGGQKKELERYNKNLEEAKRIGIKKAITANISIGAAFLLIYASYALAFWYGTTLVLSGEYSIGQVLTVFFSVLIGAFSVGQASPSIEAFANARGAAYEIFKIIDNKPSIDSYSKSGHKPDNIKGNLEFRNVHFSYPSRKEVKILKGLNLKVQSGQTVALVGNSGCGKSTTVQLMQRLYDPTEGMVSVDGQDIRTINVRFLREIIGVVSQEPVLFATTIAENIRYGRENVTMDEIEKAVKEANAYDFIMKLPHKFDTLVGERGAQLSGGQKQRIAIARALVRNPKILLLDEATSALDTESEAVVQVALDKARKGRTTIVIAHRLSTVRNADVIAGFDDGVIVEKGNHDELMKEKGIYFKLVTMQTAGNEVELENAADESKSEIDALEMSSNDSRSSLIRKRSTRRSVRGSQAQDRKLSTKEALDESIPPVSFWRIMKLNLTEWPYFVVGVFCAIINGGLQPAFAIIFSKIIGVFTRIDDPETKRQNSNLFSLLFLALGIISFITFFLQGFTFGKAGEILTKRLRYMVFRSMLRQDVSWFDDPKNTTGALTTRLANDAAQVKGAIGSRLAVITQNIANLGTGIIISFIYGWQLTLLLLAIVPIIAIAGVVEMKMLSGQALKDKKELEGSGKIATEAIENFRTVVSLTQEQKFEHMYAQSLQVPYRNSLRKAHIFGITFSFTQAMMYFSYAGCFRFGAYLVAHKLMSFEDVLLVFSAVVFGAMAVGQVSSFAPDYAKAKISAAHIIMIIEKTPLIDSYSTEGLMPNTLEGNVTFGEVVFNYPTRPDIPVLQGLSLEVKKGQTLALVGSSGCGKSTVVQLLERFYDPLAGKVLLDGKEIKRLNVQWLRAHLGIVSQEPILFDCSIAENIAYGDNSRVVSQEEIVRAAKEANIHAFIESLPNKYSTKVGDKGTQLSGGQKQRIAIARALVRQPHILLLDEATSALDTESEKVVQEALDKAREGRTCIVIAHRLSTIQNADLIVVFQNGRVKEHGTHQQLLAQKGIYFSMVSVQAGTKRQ

Structure (SMILES): CN(C)CCNC(=O)c1cccc(NC(=O)Nc2ccc(N(CCCl)CCCl)cc2)c1 [BO-1055, Ureidomustine]
- fraction unbound at 2 h, 20 μM ([1]; 2 h): 0.0032
- fraction unbound at 4 h, 20 μM ([1]; 4 h): 0.0031
- fraction unbound at 6 h, 20 μM ([1]; 6 h): 0.0799
- fraction unbound at 24 h, 20 μM ([1]; 24 h): 0.248
- IC50 [2]: 17.7 µM and 12.5 µM and 19.3 µM
- survival longer than control [3]: 48 days
- share of tested cell lines with IC50 in sub-μM range [4]: 30%
- P-gp assessment [5]: Possible P-gp liabilities
- IC50 [6]: ≥ 10 µM
- IC50 [7]: 0.29 µM
- tumor-free mice [8]: 3/5
- IC50 [9]: 5.06 µM
- IC50 [10]: 0.46 µM
- IC50 [11]: 0.115 µM and 0.105 µM and 0.101 µM
- IC50 ([12]; Homo sapiens, THP1 and MOLM13): 0.18 to 0.45 µM
- increase of cytotoxicity by MLL-AF9 ([12]; MLL-AF9 transduced vs normal CB or BM CD34+): 25-40 fold
- IC50 [13]: 7.71 µM and 8.41 µM
- average body-weight ([14]; after cessation of treatment): recovered on day 35-40
- pathological change in heart, liver, spleen, lung and kidney ([14]; day 42 after onset of drug administration): no apparent pathological change

Structure (SMILES): N.N.[Cl][Pt][Cl] [Cisplatin]
- IC50 [15]: 5.9 µM
- IC50 [16]: ≥ 25 µM
- IC50 [17]: ≥ 30 µM
- IC50 [18]: 2.09 µM
- IC50 [19]: ≥ 15 µM
- IC50 [20]: 6.94 µM
- IC50 [21]: 2.8 µM
- IC50 [22]: 1.21 µM
- IC50 [23]: ≥ 75 µM
- IC50 [24]: 20 µM
- IC50 [25]: 3.42 µM
- IC50 [26]: ≥ 20 µM
- IC50 [27]: 2.85 µM
- IC50 [28]: ≥ 20 µM
- IC50 [29]: 100 µM
- IC50 [30]: 1.12 µM
- IC50 [31]: ≥ 50 µM
- IC50 [32]: 2.9 µM
- IC50 [33]: < 15 µM
- IC50 [34]: 0.41 µM
- IC50 [35]: ≥ 35 µM

— patent US20200246284A1 (Academia Sinica, priority 2015, published 2020)
